What was measured:
HCT116 cells = assay: Antiproliferative activity: inhibition of cellular proliferation of HCT116 cells (14C-thymidine incorporation); format: cell-based; conditions: Homo sapiens, HCT-116, 96 hours
Experimental: The antiproliferative activity of the products of the examples of Table 1 was determined by measuring the inhibition of the cellular proliferation of HCT116 cells.
The cells are inoculated into a cell culture medium at a concentration of 10 000 cells per well, in 0.17 mL of medium, and 20 μL of product to be tested, at various concentrations, and 10 μL of thymidine [methyl-14C] (100 μCi/ml—specific activity 47.90 mCi/mmol; NEN Technologies reference NEC568 batch 3550-001) are added, and then the cells are incubated at 37° C. and 5% CO2.
Medium used for the culture of HCT116 cells:DMEM medium 2 mM L-glutamine, 200 IU/ml penicillin, 200 μg/ml streptomycin and 10% (V/V) foetal calf serum (Life Technologies).
After 96 hours, the incorporation of ^14C-thymidine is counted in a Microbeta Wallac Trilux 1450 liquid scintillation counter. The results R are expressed in cpm (counts per minute) and converted to percentage growth inhibition GI % by first subtracting the mean of the number of cpm of the wells without B cells and by then dividing by the number of cpm of the wells of the untreated cells C comprising 20 μL of medium for dilution of the product containing 1% ethanol. (GI %=(R−B)×100/C %).
The IC50 values are calculated with the aid of the equation 205 of the XLFit software (IDBS company, UK) by non-linear regression analysis using the Marquardt algorithm (Donald W. MARQUARDT, J. Soc. industry. appl, vol 11, No. 2, June, 1963).

in vitro = conditions: human, Caco-2

Row | SMILES | IC50 (HCT116 cells) [nM] | Papp (in vitro) [×10⁻⁶ cm/s]
1 | CO[C@@H](C(=O)N[C@H]1CNc2ccccc2NC1=O)[C@H](O)[C@@H](O)[C@H](O)/C=C/C(C)(C)C [Example 3, N-((S)-2-oxo-2,3,4,5-tetrahydro-1H-1,5-benzodiazepin-3-yl)-(E)-(2R,3R,4S,5R)-3,4,5-trihydroxy-2-methoxy-8,8-dimethylnon-6-enamide] | 88 | –
2 | CO[C@@H](C(=O)N[C@H]1COc2ccccc2N(C)C1=O)[C@H](O)[C@@H](O)[C@H](O)/C=C/C(C)(C)C [Example 2, N-((S)-9-methyl-8-oxo-6,7,8,9-tetrahydro-5-oxa-9-azabenzocyclohepten-7-yl)-(E)-(2R,3R,4S,5R)-3,4,5-trihydroxy-2-methoxy-8,8-dimethylnon-6-enamide] | 32 | 5.2
3 | CO[C@@H](C(=O)NC1CN(C)c2ccccc2NC1=O)[C@H](O)[C@@H](O)[C@H](O)/C=C/C(C)(C)C (stereo partly drawn) [Example 5, N-((S)-1-methyl-4-oxo-2,3,4,5-tetrahydro-1H-1,5-bezodiazepin-3-yl)-(E)-(2R,3R,4S,5R)-3,4,5-trihydroxy-2-methoxy-8,8-dimethylnon-6-enamide] | 28 | –
4 | CO[C@@H](C(=O)N[C@H]1COc2ccccc2NC1=O)[C@H](O)[C@@H](O)[C@H](O)/C=C/C(C)(C)C [Example 1, N-((S)-8-oxo-6,7,8,9-tetrahydro-5-oxa-9-azabenzocyclohepten-7-yl)-(E)-(2R,3R,4S,5R)-3,4,5-trihydroxy-2-methoxy-8,8-dimethylnon-6-enamide] | 60 | –
5 | CO[C@@H](C(=O)N[C@H]1CNc2ccccc2N(C)C1=O)[C@H](O)[C@@H](O)[C@H](O)/C=C/C(C)(C)C [Example 4, N-((S)-1-methyl-2-oxo-2,3,4,5-tetrahydro-1H-1,5-benzodiazepin-3-yl)-(E)-(2R,3R,4S,5R)-3,4,5-trihydroxy-2-methoxy-8,8-dimethylnon-6-enamide] | 45 | –

From patent US7994161B2, “Derivatives of 2-alkoxy-3,4,5-trihydroxy-alkyl amides, preparation and use thereof, and compositions containing the same” (Sanofi-Aventis, priority 2006, dated 2011)
